Our source for the IC50 values is US9066905B2, “Synthetic peptides and methods of use for autoimmune disease therapies” (President and Fellows of Harvard College, priority 1998, dated 2015).

The structures appear in SMILES notation. Like-named read-outs stand apart in the source and are kept apart here. Residues, ends and D or L forms follow the SMILES beside them.

Assay [1] concerns the target HLA-DR4 (DRB1*0401) molecules (Homo sapiens, UniProt P01903+P01911, A100K/A169T/F76Y/I96L/K127E/L162R/M171V/N62H/P40V/Q125Y/R42H/S133A/S149N/S66Y/V115G/V209L/W38E). The assay is described as follows: Competitive binding assay with recombinant water-soluble HLA-DR4.
Assay [2] addresses HLA-DR1 (DRB1*0101) molecules (Homo sapiens, UniProt P01903+P01911, A100R/D57E/F55L/F60I/F76Y/I96L/L162R/M171V/P40L/Q125E/R42F/V115G/Y59C). The assay is described as follows: Competitive binding assay with recombinant water-soluble HLA-DR1.
Setting [3] is: Affinity for HLA-DR4 (DRB1*0401) molecules determined by competition with biotinylated competitor HA 306-318, biotinylated competitor HA306-318.
The mark [4] stands for this setting: biotinylated competitor YEAK, read-out: Affinity for HLA-DR4 (DRB1*0401) molecules determined by competition with biotinylated competitor YEAK.
Where [5] appears, read: Affinity for HLA-DR1 (DRB1*0101) molecules determined by competition with biotinylated competitor HA 306-318, biotinylated competitor HA306-318.
Where [6] appears, read: biotinylated competitor YEAK, read-out: Affinity for HLA-DR1 (DRB1*0101) molecules determined by competition with biotinylated competitor YEAK.

In the case of `C[C@H](N)C(=O)N[C@@H](C)C(=O)N[C@@H](C)C(=O)N[C@@H](Cc1ccc(O)cc1)C(=O)N[C@@H](C)C(=O)N[C@@H](C)C(=O)N[C@@H](C)C(=O)N[C@@H](C)C(=O)N[C@@H](C)C(=O)N[C@@H](C)C(=O)N[C@@H](CCCCN)C(=O)N[C@@H](C)C(=O)N[C@@H](C)C(=O)N[C@@H](C)C(=O)N[C@@H](C)C(=O)O` [compound 5] (H-AAAYAAAAAAKAAAA-OH), the IC50 in assay [1] (setting [3]) was 7 µM.
As for `C[C@H](NC(=O)[C@H](C)NC(=O)[C@H](C)NC(=O)[C@H](C)NC(=O)[C@H](CCCCN)NC(=O)[C@H](C)NC(=O)[C@H](C)NC(=O)[C@H](C)NC(=O)[C@H](C)NC(=O)[C@H](C)NC(=O)[C@H](C)NC(=O)[C@H](Cc1ccc(O)cc1)NC(=O)[C@H](CCCCN)NC(=O)[C@H](C)NC(=O)[C@@H](N)CCC(=O)O)C(=O)O` [compound 18] (H-EAKYAAAAAAKAAAA-OH), the IC50 was 4.4 µM in assay [1] (setting [3]), 3 µM in assay [1] (setting [4]) and 33 µM in assay [2] (setting [5]).
`C[C@H](N)C(=O)N[C@@H](C)C(=O)N[C@@H](CCCCN)C(=O)N[C@@H](Cc1ccc(O)cc1)C(=O)N[C@@H](C)C(=O)N[C@@H](CCC(=O)O)C(=O)N[C@@H](C)C(=O)N[C@@H](C)C(=O)N[C@@H](C)C(=O)N[C@@H](C)C(=O)N[C@@H](CCCCN)C(=O)N[C@@H](C)C(=O)N[C@@H](C)C(=O)N[C@@H](C)C(=O)N[C@@H](C)C(=O)O` [compound 15] (H-AAKYAEAAAAKAAAA-OH): the IC50 in assay [1] (setting [3]) was 1.8 µM; in assay [1] (setting [4]), less than 1 µM; in assay [2] (setting [5]) it was 42 µM; in assay [2] (setting [6]), 16 µM.
As for `C[C@H](N)C(=O)N[C@@H](CCC(=O)O)C(=O)N[C@@H](CCCCN)C(=O)N[C@@H](C)C(=O)N[C@@H](Cc1ccc(O)cc1)C(=O)N[C@@H](C)C(=O)N[C@@H](C)C(=O)N[C@@H](C)C(=O)N[C@@H](C)C(=O)N[C@@H](C)C(=O)N[C@@H](C)C(=O)N[C@@H](C)C(=O)N[C@@H](C)C(=O)N[C@@H](C)C(=O)N[C@@H](C)C(=O)O` [compound 33], the IC50 in assay [1] (setting [3]) was less than 1 µM.
Still for that read-out and setting: with `C[C@H](NC(=O)[C@H](C)NC(=O)[C@H](C)NC(=O)[C@H](C)NC(=O)[C@H](CCCCN)NC(=O)[C@H](C)NC(=O)[C@H](C)NC(=O)[C@H](C)NC(=O)[C@H](C)NC(=O)[C@H](C)NC(=O)[C@H](C)NC(=O)[C@H](Cc1ccc(O)cc1)NC(=O)[C@H](C)NC(=O)[C@H](CCCCN)NC(=O)[C@@H](N)CCC(=O)O)C(=O)O` [compound 13] (H-EKAYAAAAAAKAAAA-OH) the figure was 3.3 µM.
Still for that read-out and setting: the same measure for `C[C@H](NC(=O)[C@H](C)NC(=O)[C@H](C)NC(=O)[C@H](C)NC(=O)[C@H](CCCCN)NC(=O)[C@H](C)NC(=O)[C@H](C)NC(=O)[C@H](C)NC(=O)[C@H](C)NC(=O)[C@H](C)NC(=O)[C@H](C)NC(=O)[C@H](Cc1ccc(O)cc1)NC(=O)[C@H](CCCCN)NC(=O)[C@H](CCCCN)NC(=O)[C@@H](N)CCC(=O)O)C(=O)O` [compound 17] (H-EKKYAAAAAAKAAAA-OH): 1.8 µM.
As to `C[C@H](N)C(=O)N[C@@H](C)C(=O)N[C@@H](CCC(=O)O)C(=O)N[C@@H](Cc1ccc(O)cc1)C(=O)N[C@@H](C)C(=O)N[C@@H](C)C(=O)N[C@@H](C)C(=O)N[C@@H](C)C(=O)N[C@@H](C)C(=O)N[C@@H](C)C(=O)N[C@@H](CCCCN)C(=O)N[C@@H](C)C(=O)N[C@@H](C)C(=O)N[C@@H](C)C(=O)N[C@@H](C)C(=O)O` [compound 12], the IC50 came out at 3.2 µM in assay [1] (setting [3]) and 47 µM in assay [2] (setting [5]).
Take `C[C@H](N)C(=O)N[C@@H](CCCCN)C(=O)N[C@@H](CCCCN)C(=O)N[C@@H](Cc1ccc(O)cc1)C(=O)N[C@@H](CCC(=O)O)C(=O)N[C@@H](C)C(=O)N[C@@H](C)C(=O)N[C@@H](C)C(=O)N[C@@H](C)C(=O)N[C@@H](C)C(=O)N[C@@H](C)C(=O)N[C@@H](C)C(=O)N[C@@H](C)C(=O)N[C@@H](C)C(=O)N[C@@H](C)C(=O)O` [compound 21]: the IC50 in assay [1] (setting [3]) was determined as 2.2 µM.
Still for that read-out and setting: with `C[C@H](N)C(=O)N[C@@H](C)C(=O)N[C@@H](CCC(=O)O)C(=O)N[C@@H](Cc1ccc(O)cc1)C(=O)N[C@@H](CCCCN)C(=O)N[C@@H](C)C(=O)N[C@@H](C)C(=O)N[C@@H](C)C(=O)N[C@@H](C)C(=O)N[C@@H](C)C(=O)N[C@@H](C)C(=O)N[C@@H](C)C(=O)N[C@@H](C)C(=O)N[C@@H](C)C(=O)N[C@@H](C)C(=O)O` [compound 26] the figure was 1.8 µM.
Turning to `C[C@H](N)C(=O)N[C@@H](CCC(=O)O)C(=O)N[C@@H](Cc1ccc(O)cc1)C(=O)N[C@@H](C)C(=O)N[C@@H](CCCCN)C(=O)N[C@@H](C)C(=O)N[C@@H](C)C(=O)N[C@@H](C)C(=O)N[C@@H](C)C(=O)N[C@@H](C)C(=O)N[C@@H](C)C(=O)N[C@@H](C)C(=O)N[C@@H](C)C(=O)N[C@@H](C)C(=O)N[C@@H](C)C(=O)O` [compound 32], in assay [1] (setting [3]), the IC50 was determined as 3 µM.
The same measure, in the same setting: the same measure for `C[C@H](N)C(=O)N[C@@H](CCC(=O)O)C(=O)N[C@@H](CCC(=O)O)C(=O)N[C@@H](Cc1ccc(O)cc1)C(=O)N[C@@H](C)C(=O)N[C@@H](C)C(=O)N[C@@H](C)C(=O)N[C@@H](C)C(=O)N[C@@H](C)C(=O)N[C@@H](C)C(=O)N[C@@H](CCCCN)C(=O)N[C@@H](C)C(=O)N[C@@H](C)C(=O)N[C@@H](C)C(=O)N[C@@H](C)C(=O)O` [compound 11]: 2 µM.
Still for that read-out and setting: with `C[C@H](N)C(=O)N[C@@H](C)C(=O)N[C@@H](CCCCN)C(=O)N[C@@H](Cc1ccc(O)cc1)C(=O)N[C@@H](CCC(=O)O)C(=O)N[C@@H](C)C(=O)N[C@@H](C)C(=O)N[C@@H](C)C(=O)N[C@@H](C)C(=O)N[C@@H](C)C(=O)N[C@@H](CCCCN)C(=O)N[C@@H](C)C(=O)N[C@@H](C)C(=O)N[C@@H](C)C(=O)N[C@@H](C)C(=O)O` [compound 14] (H-AAKYEAAAAAKAAAA-OH) the figure was 4 µM; with `C[C@H](N)C(=O)N[C@@H](CCCCN)C(=O)N[C@@H](Cc1ccc(O)cc1)C(=O)N[C@@H](C)C(=O)N[C@@H](CCC(=O)O)C(=O)N[C@@H](C)C(=O)N[C@@H](C)C(=O)N[C@@H](C)C(=O)N[C@@H](C)C(=O)N[C@@H](C)C(=O)N[C@@H](C)C(=O)N[C@@H](C)C(=O)N[C@@H](C)C(=O)N[C@@H](C)C(=O)N[C@@H](C)C(=O)O` [compound 36], 3 µM; with `C[C@H](NC(=O)[C@H](C)NC(=O)[C@H](C)NC(=O)[C@H](C)NC(=O)[C@H](CCCCN)NC(=O)[C@H](C)NC(=O)[C@H](C)NC(=O)[C@H](C)NC(=O)[C@H](C)NC(=O)[C@H](C)NC(=O)[C@H](C)NC(=O)[C@H](Cc1ccc(O)cc1)NC(=O)[C@H](C)NC(=O)[C@H](C)NC(=O)[C@@H](N)CCC(=O)O)C(=O)O` [compound 16] (H-EAAYAAAAAAKAAAA-OH), 5 µM.
Consider `CC(C)C[C@H](NC(=O)[C@H](CCCCN)NC(=O)[C@H](CC(C)C)NC(=O)[C@@H](NC(=O)[C@H](CC(N)=O)NC(=O)[C@H](CCC(N)=O)NC(=O)[C@H](CCCCN)NC(=O)[C@@H](NC(=O)[C@H](Cc1ccc(O)cc1)NC(=O)[C@H](CCCCN)NC(=O)[C@@H]1CCCN1C(=O)[C@H](C)N)C(C)C)[C@@H](C)O)C(=O)N[C@@H](C)C(=O)N[C@H](C(=O)N[C@@H](C)C(=O)O)[C@@H](C)O` [compound 4], for which the IC50 is 26 µM in assay [1] (setting [3]), 8.2 µM in assay [1] (setting [4]), 13 µM in assay [2] (setting [5]) and 3.3 µM in assay [2] (setting [6]).
`C[C@H](N)C(=O)N[C@@H](Cc1ccc(O)cc1)C(=O)N[C@@H](CCCCN)C(=O)N[C@@H](C)C(=O)N[C@@H](CCC(=O)O)C(=O)N[C@@H](C)C(=O)N[C@@H](C)C(=O)N[C@@H](C)C(=O)N[C@@H](C)C(=O)N[C@@H](C)C(=O)N[C@@H](C)C(=O)N[C@@H](C)C(=O)N[C@@H](C)C(=O)N[C@@H](C)C(=O)N[C@@H](C)C(=O)O` [compound 35]: the IC50 in assay [1] (setting [3]) was 1.3 µM.
For `C[C@H](N)C(=O)N[C@@H](CCCCN)C(=O)N[C@@H](CCC(=O)O)C(=O)N[C@@H](Cc1ccc(O)cc1)C(=O)N[C@@H](C)C(=O)N[C@@H](C)C(=O)N[C@@H](C)C(=O)N[C@@H](C)C(=O)N[C@@H](C)C(=O)N[C@@H](C)C(=O)N[C@@H](CCCCN)C(=O)N[C@@H](C)C(=O)N[C@@H](C)C(=O)N[C@@H](C)C(=O)N[C@@H](C)C(=O)O` [compound 7] (H-AKEYAAAAAAKAAAA-OH), the figures for the IC50 in assay [1] (setting [3]) and in assay [2] (setting [5]) were 4.5 µM and 19 µM, respectively.
